From ChEMBL document CHEMBL1201862, “PubChem BioAssay data set” (2004)
Active and inactive are the calls of the source.

How the values were obtained:
[1] = target: G-protein coupled receptor 35 (Homo sapiens, UniProt Q9HC97); test: inhibition of zaprinast-stimulated GPR35 beta-arrestin translocation – imaging, U2OS, beta-arrestin-GFP, zaprinast agonist, primary screen (AID 2058); type: functional;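 note: antagonist potency meaning inhibition of agonist-induced arrestin redistribution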
[2] = NIH3T3 cell viability loss – ATP luminescence, mouse fibroblasts, counter-screen, dose response (AID 2010); type: functional, cell-based;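 note: cells exposed to compound for about 90 hours before reading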
[3] = Trypanosoma cruzi growth suppression in host cells – NIH3T3 host cells, beta-gal luminescence, confirmation (AID 2044); type: functional, cell-based;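 note: intracellular parasites grown in NIH/3T3 mouse fibroblasts as host cells; luminescent beta-galactosidase reporter signal from transgenic T. cruzi replicating inside host cells; inhibitors lower the luminescence signal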
[4] = target: T1, Voltage-dependent T-type calcium channel subunit alpha-1H (Homo sapiens, UniProt O95180); type: functional
T1 sequence (O95180 whole entry): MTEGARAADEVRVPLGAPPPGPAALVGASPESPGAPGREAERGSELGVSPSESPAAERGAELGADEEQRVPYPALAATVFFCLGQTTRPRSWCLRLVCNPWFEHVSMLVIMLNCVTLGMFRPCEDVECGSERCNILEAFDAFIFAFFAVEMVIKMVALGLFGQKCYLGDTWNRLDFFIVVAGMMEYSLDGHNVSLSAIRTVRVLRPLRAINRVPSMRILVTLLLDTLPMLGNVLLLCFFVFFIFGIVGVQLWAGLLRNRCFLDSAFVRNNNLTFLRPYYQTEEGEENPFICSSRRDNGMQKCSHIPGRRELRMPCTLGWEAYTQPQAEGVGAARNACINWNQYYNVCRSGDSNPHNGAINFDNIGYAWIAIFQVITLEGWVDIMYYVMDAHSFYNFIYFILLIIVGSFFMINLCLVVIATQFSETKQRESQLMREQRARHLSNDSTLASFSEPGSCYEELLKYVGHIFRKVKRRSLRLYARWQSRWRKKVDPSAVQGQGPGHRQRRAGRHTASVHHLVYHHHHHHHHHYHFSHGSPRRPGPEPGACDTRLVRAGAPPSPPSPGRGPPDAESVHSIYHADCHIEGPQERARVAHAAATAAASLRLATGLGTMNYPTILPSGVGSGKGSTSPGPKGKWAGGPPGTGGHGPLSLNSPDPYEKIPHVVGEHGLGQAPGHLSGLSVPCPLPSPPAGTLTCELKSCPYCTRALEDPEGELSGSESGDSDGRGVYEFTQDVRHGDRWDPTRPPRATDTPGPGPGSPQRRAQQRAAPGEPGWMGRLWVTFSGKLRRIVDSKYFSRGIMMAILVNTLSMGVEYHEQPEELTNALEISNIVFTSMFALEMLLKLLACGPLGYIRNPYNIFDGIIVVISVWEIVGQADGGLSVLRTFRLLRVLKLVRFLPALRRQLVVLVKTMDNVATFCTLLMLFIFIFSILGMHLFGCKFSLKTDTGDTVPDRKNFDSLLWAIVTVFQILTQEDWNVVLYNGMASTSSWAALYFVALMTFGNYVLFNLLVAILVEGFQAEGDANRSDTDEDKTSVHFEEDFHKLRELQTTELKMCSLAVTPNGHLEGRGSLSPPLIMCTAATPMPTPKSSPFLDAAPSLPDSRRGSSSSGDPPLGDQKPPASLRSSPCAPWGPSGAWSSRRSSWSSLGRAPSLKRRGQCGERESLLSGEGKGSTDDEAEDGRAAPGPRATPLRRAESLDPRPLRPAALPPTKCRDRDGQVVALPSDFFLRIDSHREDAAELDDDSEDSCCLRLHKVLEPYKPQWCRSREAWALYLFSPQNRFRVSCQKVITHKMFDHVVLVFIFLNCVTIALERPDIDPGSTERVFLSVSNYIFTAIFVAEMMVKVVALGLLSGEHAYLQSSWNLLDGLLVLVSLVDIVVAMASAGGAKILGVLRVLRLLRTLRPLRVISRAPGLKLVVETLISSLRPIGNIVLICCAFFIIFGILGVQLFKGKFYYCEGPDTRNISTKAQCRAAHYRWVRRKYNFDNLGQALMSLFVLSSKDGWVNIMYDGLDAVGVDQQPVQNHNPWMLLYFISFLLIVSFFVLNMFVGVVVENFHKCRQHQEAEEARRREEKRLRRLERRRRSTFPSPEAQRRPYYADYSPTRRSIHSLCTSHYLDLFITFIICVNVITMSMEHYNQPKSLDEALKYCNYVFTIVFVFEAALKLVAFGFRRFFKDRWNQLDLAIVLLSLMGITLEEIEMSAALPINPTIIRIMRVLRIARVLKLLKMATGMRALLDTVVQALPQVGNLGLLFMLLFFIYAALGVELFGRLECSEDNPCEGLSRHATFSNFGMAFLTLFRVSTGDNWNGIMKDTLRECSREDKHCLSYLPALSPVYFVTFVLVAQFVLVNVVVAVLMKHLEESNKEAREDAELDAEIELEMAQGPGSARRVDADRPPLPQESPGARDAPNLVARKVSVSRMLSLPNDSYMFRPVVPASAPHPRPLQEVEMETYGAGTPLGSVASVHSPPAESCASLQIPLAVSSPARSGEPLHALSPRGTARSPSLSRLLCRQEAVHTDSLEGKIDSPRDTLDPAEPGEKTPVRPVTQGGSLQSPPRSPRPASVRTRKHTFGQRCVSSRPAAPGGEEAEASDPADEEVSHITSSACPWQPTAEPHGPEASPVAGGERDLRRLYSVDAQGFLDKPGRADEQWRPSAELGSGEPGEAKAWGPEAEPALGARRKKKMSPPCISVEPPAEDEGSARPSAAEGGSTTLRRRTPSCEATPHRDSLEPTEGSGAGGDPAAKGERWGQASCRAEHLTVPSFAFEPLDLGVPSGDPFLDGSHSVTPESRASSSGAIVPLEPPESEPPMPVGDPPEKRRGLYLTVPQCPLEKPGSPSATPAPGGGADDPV

[5] = target: Trypsin (Sus scrofa, UniProt P00761); test: trypsin protease activity blockade – biochemical, quenched peptide fluorescence, cherry-pick, selectivity assay for Rce1 protease inhibitor project, dose response (AID 488789)
Chain of Trypsin (P00761 whole entry): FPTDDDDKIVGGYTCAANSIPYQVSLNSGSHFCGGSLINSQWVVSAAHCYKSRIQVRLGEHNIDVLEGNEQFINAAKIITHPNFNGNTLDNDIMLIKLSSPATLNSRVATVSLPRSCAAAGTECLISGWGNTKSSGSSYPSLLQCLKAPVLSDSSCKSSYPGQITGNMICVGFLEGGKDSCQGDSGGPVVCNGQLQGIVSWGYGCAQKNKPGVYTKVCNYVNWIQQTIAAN

[6] = target: T2, Voltage-gated N-type calcium channel alpha-1B subunit/Amyloid beta A4 precursor protein-binding family A member 1 (Homo sapiens, UniProt Q00975+Q02410); type: protein assay
[7] = target: T2, Voltage-gated N-type calcium channel alpha-1B subunit/Amyloid beta A4 precursor protein-binding family A member 1; type: protein assay; remark: listed apart in the source
[8] = reduction of Shn3 3'UTR-driven luciferase in osteoblasts – cell-based, Clone20 osteoblasts, firefly luciferase, cherry-picked, dose response (AID 624132); type: functional;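 note: firefly luciferase luminescence from reporter carrying the Shn3 3'UTR in osteoblasts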
[9] = Luminescence Cell-Based Dose Retest to Confirm Inhibitors of Cancer Stem Cells. [Related pubchem assays (depositor defined):AID2717, AID2721]; type: functional; details: Homo sapiens
[10] = non-specific 3'UTR reporter inhibition in Clone20-Shn3RL – cell-based, Renilla luciferase, cherry-picked, counter-screen for Shn3 inhibitor project, dose response (AID 624133); type: functional
[11] = target: X-box-binding protein 1 (Homo sapiens, UniProt P17861); type: functional, Cricetulus griseus;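 note: confirmatory dose-response counter-screen serving a CHOP assay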
Chain of X-box-binding protein 1 (P17861 whole entry): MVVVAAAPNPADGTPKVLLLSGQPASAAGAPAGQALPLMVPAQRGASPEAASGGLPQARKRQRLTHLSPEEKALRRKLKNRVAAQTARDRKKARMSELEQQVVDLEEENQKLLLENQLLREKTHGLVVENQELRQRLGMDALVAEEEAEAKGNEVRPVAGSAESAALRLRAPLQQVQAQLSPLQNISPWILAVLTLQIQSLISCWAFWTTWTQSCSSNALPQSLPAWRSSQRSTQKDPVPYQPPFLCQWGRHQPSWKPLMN

[12] = loss of viability in HepG2 cells – cell-based, CellTiter-Glo, cherry-picked, cytotoxicity control for Shn3 inhibitor project, dose response (AID 624134); type: functional
[13] = target: T3, RNA-binding protein pos-1 (Caenorhabditis elegans, UniProt G5EF15); test: disruptors of C. elegans POS-1 RNA interaction – biochemical, fluorescence polarization, dose response (AID 1964);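 note: purified POS-1 fused to maltose binding protein made in E. coli; potency of compounds blocking POS-1 binding to fluorescent RNA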
T3 sequence (G5EF15 whole entry): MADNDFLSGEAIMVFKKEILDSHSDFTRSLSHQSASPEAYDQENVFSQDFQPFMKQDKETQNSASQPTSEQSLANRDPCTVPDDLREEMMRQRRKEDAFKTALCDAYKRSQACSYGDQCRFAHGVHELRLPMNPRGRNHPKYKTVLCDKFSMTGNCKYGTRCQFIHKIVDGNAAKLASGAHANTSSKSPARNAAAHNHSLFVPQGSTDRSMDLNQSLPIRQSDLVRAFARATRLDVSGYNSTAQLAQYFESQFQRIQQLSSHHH

[14] = target: T1, Voltage-dependent T-type calcium channel subunit alpha-1H; test: Inhibitors of T-Type Calcium Channels. [Related pubchem assays (depositor defined):AID449739, AID463087, AID489005, AID493041, AID504579, AID504584, AID504619, AID504628]; type: functional
[15] = target: T4, Zinc finger protein mex-5 (Caenorhabditis elegans, UniProt Q9XUB2); test: potency of MEX-5 RNA-binding blockers – biochemical, C. elegans, fluorescence polarization, dose response (AID 1960)
T4 sequence (Q9XUB2 whole entry): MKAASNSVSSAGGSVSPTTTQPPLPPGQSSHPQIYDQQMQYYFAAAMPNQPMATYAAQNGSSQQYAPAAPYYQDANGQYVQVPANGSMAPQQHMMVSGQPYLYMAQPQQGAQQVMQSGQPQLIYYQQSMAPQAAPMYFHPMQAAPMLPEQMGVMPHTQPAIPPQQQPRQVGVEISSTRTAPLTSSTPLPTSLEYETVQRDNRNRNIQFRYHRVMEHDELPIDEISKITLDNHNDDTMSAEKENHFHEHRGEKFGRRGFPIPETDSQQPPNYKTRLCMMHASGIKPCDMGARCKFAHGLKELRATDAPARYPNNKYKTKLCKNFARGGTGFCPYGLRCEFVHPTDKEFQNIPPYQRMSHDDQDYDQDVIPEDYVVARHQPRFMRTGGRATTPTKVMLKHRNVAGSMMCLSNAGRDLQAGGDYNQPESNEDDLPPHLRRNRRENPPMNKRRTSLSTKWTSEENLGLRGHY

[16] = system: BJ; test: BJ-TERT-LT-ST fibroblast viability loss – cell-based, RAS-independent, luminescence, dose response (AID 1935); type: functional; details: Homo sapiens;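 note: BJ fibroblasts immortalized with TERT plus LT and ST oncogenes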
[17] = system: BJ; test: growth inhibition of engineered Ras-driven BJ cells – cell-based, alamar blue fluorescence, cherrypicked samples, dose response (AID 2631); type: functional; details: Homo sapiens;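 note: confirmatory dose-response assay in RAS-dependent BJ fibroblasts engineered with TERT, LT and ST, with cytotoxicity read by fluorescence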
[18] = microbe, parasite or virus in culture; type: functional; details: Mycobacterium tuberculosis
[19] = DRD fibroblast viability loss – cell-based, non-viral oncogenic, luminescence, dose response (AID 1934); type: functional; details: Homo sapiens
[20] = system: BJ; test: BJ-TERT fibroblast viability loss – cell-based, RAS-independent, luminescence, dose response (AID 1933); type: functional; details: Homo sapiens
[21] = system: BJ; test: cells; type: functional, cell-based; details: Homo sapiens
[22] = target: G-protein coupled receptor 55 (Homo sapiens, UniProt Q9Y2T6); test: selective activators of receptor GPR55 – imaging, U2OS cells, beta-arrestin-GFP redistribution, primary screen (AID 1961); type: functional
Chain of G-protein coupled receptor 55 (Q9Y2T6 whole entry): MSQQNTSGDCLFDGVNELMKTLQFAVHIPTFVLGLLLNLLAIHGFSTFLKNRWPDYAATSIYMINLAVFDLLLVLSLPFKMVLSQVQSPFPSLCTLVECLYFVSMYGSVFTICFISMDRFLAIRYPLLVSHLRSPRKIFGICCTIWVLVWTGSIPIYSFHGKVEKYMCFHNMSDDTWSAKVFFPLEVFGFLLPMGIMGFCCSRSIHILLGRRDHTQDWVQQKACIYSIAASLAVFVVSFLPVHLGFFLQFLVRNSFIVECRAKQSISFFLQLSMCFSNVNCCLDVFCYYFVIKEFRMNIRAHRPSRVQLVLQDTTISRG

[23] = target: T5, Alkaline phosphatase, tissue-nonspecific isozyme (Homo sapiens, UniProt P05186); test: potency against alkaline phosphatase TNAP – biochemical, luminescent, dose response, SAR follow-up (AID 1056)
T5 sequence (P05186 whole entry): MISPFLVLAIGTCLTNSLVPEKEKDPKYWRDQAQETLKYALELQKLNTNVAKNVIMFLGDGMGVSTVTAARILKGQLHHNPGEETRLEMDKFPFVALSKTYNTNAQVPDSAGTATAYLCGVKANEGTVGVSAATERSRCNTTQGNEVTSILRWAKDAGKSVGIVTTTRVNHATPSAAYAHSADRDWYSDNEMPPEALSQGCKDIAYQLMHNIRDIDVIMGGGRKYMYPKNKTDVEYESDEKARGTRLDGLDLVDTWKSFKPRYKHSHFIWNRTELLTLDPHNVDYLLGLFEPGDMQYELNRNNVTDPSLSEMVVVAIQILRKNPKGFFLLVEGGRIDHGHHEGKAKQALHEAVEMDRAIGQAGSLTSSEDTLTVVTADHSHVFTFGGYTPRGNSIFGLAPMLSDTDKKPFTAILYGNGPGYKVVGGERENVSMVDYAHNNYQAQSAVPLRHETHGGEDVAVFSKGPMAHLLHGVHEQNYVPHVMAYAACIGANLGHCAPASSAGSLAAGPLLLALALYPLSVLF

[24] = target: Alkaline phosphatase, placental type (Homo sapiens, UniProt P05187); test: human placental alkaline phosphatase inhibition – biochemical, luminescence, confirmation (AID 1512); type: functional
Chain of Alkaline phosphatase, placental type (P05187 whole entry): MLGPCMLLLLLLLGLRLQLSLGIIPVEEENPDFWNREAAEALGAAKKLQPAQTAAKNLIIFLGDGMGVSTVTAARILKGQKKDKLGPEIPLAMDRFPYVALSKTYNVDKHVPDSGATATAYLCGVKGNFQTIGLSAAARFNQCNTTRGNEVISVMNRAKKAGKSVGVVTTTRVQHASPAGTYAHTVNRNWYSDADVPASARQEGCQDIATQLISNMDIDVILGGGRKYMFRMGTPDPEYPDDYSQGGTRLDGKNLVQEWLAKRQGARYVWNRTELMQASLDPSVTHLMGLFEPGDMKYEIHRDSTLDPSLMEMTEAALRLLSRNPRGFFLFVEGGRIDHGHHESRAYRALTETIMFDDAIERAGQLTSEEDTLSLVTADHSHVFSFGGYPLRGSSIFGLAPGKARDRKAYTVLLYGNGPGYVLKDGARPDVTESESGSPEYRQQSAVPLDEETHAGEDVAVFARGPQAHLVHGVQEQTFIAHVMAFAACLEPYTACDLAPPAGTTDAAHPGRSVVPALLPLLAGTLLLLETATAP

[25] = target: T6, Rac GTPase-activating protein 1 (Homo sapiens, UniProt Q9H0H5); test: blockers of MgcRacGAP-driven Rac1 GTP hydrolysis – biochemical, ADP Hunter fluorescence, primary and confirmatory, confirmation (AID 624330); type: functional
T6 sequence (Q9H0H5 whole entry): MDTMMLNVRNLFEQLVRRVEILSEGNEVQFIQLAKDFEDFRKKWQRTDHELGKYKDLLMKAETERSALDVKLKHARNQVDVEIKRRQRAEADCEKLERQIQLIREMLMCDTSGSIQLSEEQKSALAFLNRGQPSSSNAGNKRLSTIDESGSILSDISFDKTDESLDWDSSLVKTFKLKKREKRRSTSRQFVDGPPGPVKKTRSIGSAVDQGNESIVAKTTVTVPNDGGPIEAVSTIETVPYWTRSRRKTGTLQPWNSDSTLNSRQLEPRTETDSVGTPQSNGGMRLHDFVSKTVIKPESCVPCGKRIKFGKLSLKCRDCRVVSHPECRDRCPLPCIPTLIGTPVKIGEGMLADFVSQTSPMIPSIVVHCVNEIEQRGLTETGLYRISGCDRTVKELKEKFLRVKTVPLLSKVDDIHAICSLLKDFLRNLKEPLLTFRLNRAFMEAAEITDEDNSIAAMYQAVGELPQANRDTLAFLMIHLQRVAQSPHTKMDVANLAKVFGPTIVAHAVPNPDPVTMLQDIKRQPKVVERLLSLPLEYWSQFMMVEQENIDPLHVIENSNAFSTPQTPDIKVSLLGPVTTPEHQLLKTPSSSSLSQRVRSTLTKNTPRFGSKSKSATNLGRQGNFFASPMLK

Chain of G-protein coupled receptor 35 (Q9HC97 whole entry): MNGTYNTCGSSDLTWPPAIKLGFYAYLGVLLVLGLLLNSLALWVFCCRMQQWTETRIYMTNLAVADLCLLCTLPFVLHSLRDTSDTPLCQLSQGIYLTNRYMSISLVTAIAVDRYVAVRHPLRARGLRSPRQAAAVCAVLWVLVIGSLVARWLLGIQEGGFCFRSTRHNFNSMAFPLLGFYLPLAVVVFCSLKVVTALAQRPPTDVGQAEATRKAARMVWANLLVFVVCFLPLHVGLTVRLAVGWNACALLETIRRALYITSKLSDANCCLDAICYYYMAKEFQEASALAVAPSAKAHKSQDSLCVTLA

In the case of CCN(CC)c1ccc(/C=C(/C#N)c2nc3cc(C)ccc3[nH]2)c(OC(C)C)c1, the IC50 [1] is reported as 557 nM (active), the EC50 [2] is reported as > 60 µM (not active) and the EC50 [3] is reported as 823 nM (active). For the same compound, the EC50 [4] was 1.62 µM (active).

For COc1ccc(-c2oc3ccc(N4CCOCC4)cc3c2/C=C/c2ccc(OC)c(OC)c2)cc1, the AC50 [5] was 2.77 µM (active).

With N#CC1=C([S-])NC(=O)[C@H]([n+]2ccccc2)[C@H]1c1ccc(Cl)cc1 the IC50 [6] was > 56.8 µM (not active) and the IC50 [7] was > 50 µM (inactive).

In the case of Cc1cc(Nc2cccc([N+](=O)[O-])c2)n2c(nc3ccccc32)c1C#N, the AC50 [8] is reported as 1.9 µM (active), the EC50 [2] is reported as > 60 µM (inconclusive) and the AC50 [9] is reported as 2.33 µM (active). The AC50 [10] was 3.46 µM (active), the “Absolute IC50 (XBP1)” value [11] was 10 µM and the EC50 [3] was 2470 nM (active). The AC50 [12] was 2.15 µM (active).

For Cc1ccc(N2C(=O)c3cccc4c(N5CCN(C)CC5)ccc(c34)C2=O)c2cccnc12, the EC50 [13] was 7.8 µM (active), the EC50 [14] was 4.61 µM (active) and the EC50 [15] was 7.84 µM (active). For the same compound, the EC50 [4] was 0.658 µM (active).

In the case of COc1ccc(C=C2C=C(C(C)(C)C)C(=O)C(C(C)(C)C)=C2)cc1OC, the EC50 [16] is reported as 3.54 µM (inconclusive), the EC50 [17] is reported as 571 nM (inconclusive) and the CC50 [18] is reported as 12.8 µM (active). The EC50 [19] was 5.35 µM (inconclusive), the IC50 [1] was 3160 nM (active) and the EC50 [20] was 2.93 µM (active). For the same compound, the EC50 [21] was 6.69 µM (active), the AC50 [9] was 1.88 µM (active) and the EC50 [22] was > 32 µM (inactive).

In the case of Cc1cc(C)c(C#N)c(SCC(=O)c2ccc3c(c2)OCO3)n1, the IC50 [23] is reported as > 100 µM (inactive) and the IC50 [24] is reported as > 100 µM (inactive).

With C=CCn1c(SCC(=O)c2ccc(O)c(O)c2)nnc1-c1cccc(Cl)c1 the IC50 [25] was 79.5 µM (active), the IC50 [23] was 20.7 µM (active) and the IC50 [24] was 6.62 µM (active).
